# Data: US20060217305A1, “Induction of tumor cell senescence by retinoid receptor agonists and antagonists” (Ordway Research Institute, Inc., priority 2005, published 2006)
# Entries after “also recorded” stand apart in the source; their conditions may differ. Where two headings read alike, the source gives them in different places.
# How the values were obtained:
# Type in all cases: cell-based, human
# [1] = system: DR5 RARE-containing promoter in MCF-7 cells; assay: DR5-luciferase transient transfection assay (RARE-dependent transcription); details: 100 nM, 24 hrs
# Protocol: The assays were carried out in triplicate. RA is all-trans retinoic acid. LGD1550 is a pan-RAR agonist. LG100815 is a pan-RAR antagonist.
# To confirm the ability of LG100815 to antagonize RARE-dependent induction of transcription analysis of firefly luciferase expression from a RARE-containing artificial promoter DR5 (Stratagene, catalog number 240119) was performed. Cells were plated to the density of 3×10^5 in P60 24 hrs before transient transfection. DR5 reporter plasmid (4 μg) was mixed with the SV40-driven-Renilla luciferase control plasmid (0.04 μg) and transfected using Lipofectamine Plus (Life Technologies/Invitrogen, Carlsbad, Calif.) as described by the manufacturer. 3 hrs after transfection, cells were rinsed three times with PBS, trypsinized and replated in a 12-well plate to the density of 5×10^4 cells per well. Retinoid agonists and antagonists were added 48 hrs later, and the luciferase assay was performed after another 24 hrs.
# [2] = system: retinoid-inducible genes EPLIN, UBD, IGFBP3, TGFB1 and TRIM31 in MCF-7 cells (subline MCF-7 3′SS6); assay: real-time RT-PCR (QPCR) of retinoid-inducible gene expression, 2 days treatment; details: for fold induction at 0.1 µM: Homo sapiens, MCF7, 48 h; for fold induction at 0.1 µM / Fold induction EPLIN / Fold induction IGFBP3 / Fold induction TGFBI / Fold induction TRIM31 / Fold induction UBD: 2 days, MCF-7
# From the text: The following compounds were obtained from Ligand Pharmaceuticals (San Diego, Calif.). LGD1550 is a pan-RAR agonist. LGD1268 is a pan-RXR agonist. LG100815 is a pan-RAR antagonist. LG101208 is a pan-RXR antagonist. The LG100815 compound is a specific RAR antagonist that binds to RAR, but fails to activate its Retinoic Acid Responsive Element (RARE)-dependent transcription transactivation function (see Lee et al, Mol. Cell Biol. 19: 1973-1980 (1999)). Also used was all-trans retinoic acid (RA), the most commonly used RAR agonist. To determine how these compounds affect the expression of retinoid-inducible growth inhibitory genes EPLIN, UBD, IGFBP3 and TGFB1, as well as TRIM31 gene that contains a putative RARE element in its promoter, MCF-7 cells (subline MCF-7 3′SS6) were treated with individual compounds or their combinations for 2 days, and RNA was extracted by standard procedures. In the initial assays, gene expression was analyzed by semi-quantitative reverse transcription-PCR (RT-PCR), as described in Dokmanovic et al., Cancer Biology & Therapy 1:24-27 (2002). In subsequent assays, the initial results were confirmed, expanded and quantitated by real-time RT-PCR (QPCR), using Applied BioSystems 7900HT real-time PCR instrument. β-actin was used as a normalization standard.
# cDNA was prepared by reverse transcription with random primer using 4 μg total RNA. 5 μl SYBR Green PCR Master Mix (Applied Biosystems) was mixed with […] cDNA and 0.8 pmol of gene-specific primers and brought up to 10 μl with ultra pure H2O in 384-well optical plates. For amplification, reaction mixtures were heated for 2 min at 50° C. and 10 min at 95° C., followed by 40 cycles of two-step PCR consisting of 15 sec at 95° C. and 1 min at 60° C., to construct dissociation curves and verify that single PCR products were obtained. PCR products were also analyzed by gel electrophoresis to confirm that a single product of the expected size was amplified. […] The comparative CT method for relative quantitation of gene expression described by Applied Biosystems was used to determine expression levels for target genes. Experiments were carried out in triplicate for each data point. Sequence Detection Systems software version 2.1 (Applied Biosystems) and Microsoft Excel were used for data analysis.
# MCF-7 cells [3] = assay: MCF-7 cell growth, cell number after 7 days; details: 100 nM RA, LGD1550, LGD1268, 10 μM LG100815, LG101208
# Protocol: The bars represent cell number after 7 days of culture with the addition of DMSO (control), 100 nM RA, 100 nM RAR agonist LGD1550, 100 nM RXR agonist LGD1268, 10 μM RAR antagonist LG100815, and 10 μM RXR antagonist LG101208. Experiments were done in triplicate, and the results are expressed relative to the average of the control.
# (§1) To test this, we have analyzed the effects of different compounds on the growth of MCF-7 cells, as measured by the cell number after 7 days exposure to the compounds (FIG. 2) and on the fraction of cells expressing the senescence-associated β-galactosidase activity (SA-β-gal), a marker of senescence, after 7-day treatment with the compounds (FIG. 3).
# MCF-7 cells [4] = assay: senescence-associated β-galactosidase (SA-β-gal) positive cells; details: 7-day treatment (FIG. 3 legend: 8 days); concentrations as in FIG. 2
# From the text: The bars represent percentages of SA-β-gal+ cells after 8 days of treatment with the indicated compounds (in triplicate). The compounds were used at the same concentrations as in FIG. 2.
# as §1
structure (smiles),measurement,setting,value
"CC1=C(/C=C/C(C)=C/C=C/C(C)=C/C(=O)O)C(C)(C)CCC1 [RA, all-trans retinoic acid]",induction of luciferase expression from DR5 RARE-containing promoter,[1],approximately 50 fold
same,ratio of the fold-induction of TGFB1 relative to TRIM31,[2]; 100 nM,0.19
same,fold induction at 0.1 µM,"[2]; 100 nM, read-out: Fold induction EPLIN",3.1 ± 0.7
same,fold induction at 0.1 µM,"[2]; 100 nM, read-out: Fold induction IGFBP3",2.5 ± 0.5
same,fold induction at 0.1 µM,"[2]; 100 nM, read-out: Fold induction TGFBI",6.5 ± 1.4
same,fold induction at 0.1 µM,"[2]; 100 nM, read-out: Fold induction TRIM31",34.4 ± 3.9
same,fold induction at 0.1 µM,"[2]; 100 nM, read-out: Fold induction UBD",8.5 ± 2.8
Cc1cc2c(cc1C1(c3ccc(C(=O)O)cn3)CC1)C(C)(C)CCC2(C)C [LGD1268],effect on MCF-7 cell growth (cell number),MCF-7 cells [3],did not inhibit cell growth; also recorded: modest but reproducible increase in cell growth
same,induction of senescent phenotype (SA-β-gal+ cells),MCF-7 cells [4],did not induce the senescent phenotype
same,Fold induction EPLIN,[2]; 100 nM,1.2 ± 0.2 fold
same,Fold induction IGFBP3,[2]; 100 nM,1.2 ± 0.5 fold
same,Fold induction TGFBI,[2]; 100 nM,1.9 ± 1.1 fold
same,Fold induction TRIM31,[2]; 100 nM,1.3 ± 0.4 fold
same,Fold induction UBD,[2]; 100 nM,1.0 ± 0.1 fold
same,Fold induction EPLIN,[2]; 1 μM,1.0 ± 0.1 fold
same,Fold induction IGFBP3,[2]; 1 μM,0.9 ± 1.1 fold
same,Fold induction TGFBI,[2]; 1 μM,2.2 ± 1.0 fold
same,Fold induction TRIM31,[2]; 1 μM,1.4 ± 0.7 fold
same,Fold induction UBD,[2]; 1 μM,0.8 ± 0.2 fold
same,Fold induction EPLIN,[2]; 10 μM,1.4 ± 0.2 fold
same,Fold induction IGFBP3,[2]; 10 μM,1.2 ± 0.4 fold
same,Fold induction TGFBI,[2]; 10 μM,2.4 ± 0.3 fold
same,Fold induction TRIM31,[2]; 10 μM,3.8 ± 0.7 fold
same,Fold induction UBD,[2]; 10 μM,1.0 ± 0.2 fold
same,"effect on expression of the five genes (IGFBP3, EPLIN, UBD, TGFB1, TRIM31)","[2]; summary of Table 2, MCF-7",induced only one of five genes (TGFB1)
